Measured values: patent publication EP0337167B1, “4-Aryl-4-piperidine (or pyrrolidine or hexahydroazepine) carbinols and heterocyclic analogs thereof” (THE DU PONT MERCK PHARMACEUTICAL COMPANY, priority 1988, dated 1989)
Read-outs that look alike come from different tables or passages of the source.

Tested on: Male CF1 mice
Assay: Mouse antiphenylquinone writhing (PQW) test
Type: in vivo
Set-up: Mouse PQW ED50 (mg/kg): unit not given here
Conditions: for Mouse PQW ED50 (mg/kg): Table 4, 3° carbinols within the scope of U.S. 4,485,109, head prints neither endpoint nor unit; for ED50: Mus musculus, 0.5 h, phenylquinone 1.25 mg/kg i.p., observation beginning 30 min after injection of test compound; for ED50 / Mouse PQW remark: Table 3; for Mouse PQW remark: remark beside S.C and P.O values
Experimental: The anti-pheylquinone writhing (PQW) test modified from the methods of Siegmund et al. (Proc. Soc. Exp. Biol. Med. 95: 729-731, 1957) and Blumberg et al. (Proc. Exp. Biol. Med. 118: 763-767, 1965) was used to assess analgesia in mice. Male CF1 mice (Charles River Breeding Laboratories, Wilmington, MA), fasted for 16-22 h and weighing 18-23 g, were injected with randomized and coded doses of test compounds, then challenged with 1.25 mg/kg i.p. phenyl-p-benzoquinone (phenylquinone) 5 min prior to the specified observation time. The phenylquinone solution (0.1 mg/ml in 5% aqueous ethanol) was prepared daily and stored in foil-wrapped amber bottles to limit degradation. Mice were observed 10 min for the presence or absence of the characteristic abdominal constriction and stretching response beginning 30 min after injection of the test compound. Analgetic activity was calculated as the percentage of mice failing to respond to the phenylquinone challenge dose. […] Median effective doses (ED50's) and 95% confidence limits were determined numerically by the methods of Thompson (Bacteriological Rev. 11: 115-145, 1947), and Litchfield and Wilcoxon (J. Pharmacol. Exp. Ther. 96: 99.113, 1949).
The data shown in Table show the PQW ED₅₀ values for the compounds of the aforesaid examples.
Table 4 illustrates that the 3° carbinols within the scope of U.S. 4,485,109 have utility as analgesic agents.

[1] = po, p.o., read-out: Mouse PQW ED₅₀ (Mg/Kg) P.O
[2] = sc, s.c., read-out: Mouse PQW ED₅₀ (Mg/Kg) S.C

Structure (SMILES)	Mouse PQW ED50 (mg/kg) (p.o.)	Mouse PQW ED50 (mg/kg) (s.c.)	ED50 [1] [mg/kg]	ED50 [2] [mg/kg]	Mouse PQW remark
CN1CCC(c2cccc(O)c2)(C(C)(C)O)CC1 [AA]	>81.0	62.0	–	–	–
COc1cccc(C2(C(C)(C)O)CCN(C)CC2)c1 [BB]	19.0	12.0	–	–	–
CCC(C)(O)C1(c2cccc(OC)c2)CCN(C)CC1 (centres unmarked) [CC]	68.0	23.0	–	–	–
CCC(O)(CC)C1(c2cccc(OC)c2)CCN(C)CC1 [DD]	12.0	–	–	–	–
COc1cccc(C2(C3(O)CCC3)CCN(C)CC2)c1 [EE]	>54.0	22.0	–	–	–
CN1CCC(c2cccc(Cl)c2)(C(C)(C)O)CC1 [Example 1a, 4-(3'-Chlorophenyl)-α,α,1-trimethyl-4-piperidinemethanol]	–	–	10	16.1	–
CCN1CCC(c2cccc(Cl)c2)(C(C)O)CC1 (stereo not drawn) [Example 2, 4-(3'-Chlorophenyl)-1-ethyl-α-methyl-4-piperidinemethanol]	–	–	> 81	62	–
CC(O)C1(c2ccccc2F)CCN(C)CC1 (centres unmarked) [Example 4]	–	–	> 81	> 81	Inactive
CC(O)C1(c2cccc(F)c2)CCN(C)CC1 (centres unmarked) [Example 5]	–	–	> 81	24	–
CC(O)C1(c2ccc(F)cc2)CCN(C)CC1 (centres unmarked) [Example 6]	–	–	> 81	54	–
CC(O)C1(c2ccc(F)c(F)c2)CCN(C)CC1 (centres unmarked) [Example 7]	–	–	> 81	38	–
CC(O)C1(c2ccc(Cl)cc2)CCN(C)CC1 (centres unmarked) [Example 8]	–	–	> 81	30	–
CC(O)C1(c2ccc(Cl)c(Cl)c2)CCN(C)CC1 (centres unmarked) [Example 9]	–	–	32	> 81	–
CC(O)C1(c2cccc(Br)c2)CCN(C)CC1 (stereo not drawn) [Example 10, 4-(3'-Bromophenyl)-α,1-dimethylpiperidinemethanol]	–	–	16	6.5	–
CC(O)C1(c2ccc(Br)cc2)CCN(C)CC1 (centres unmarked) [Example 11]	–	–	> 81	> 81	Inactive
Cc1cccc(C2(C(C)O)CCN(C)CC2)c1 (centres unmarked) [Example 13]	–	–	47	4.7	–
Cc1ccc(C2(C(C)O)CCN(C)CC2)cc1 (centres unmarked) [Example 14]	–	–	> 81	54	–
CC(O)C1(c2cccc(C(F)(F)F)c2)CCN(C)CC1 (centres unmarked) [Example 15]	–	–	30	19	–
CC(O)C1(c2ccc3ccccc3c2)CCN(C)CC1 (centres unmarked) [Example 25]	–	–	> 81	16	–
CC(O)C1(c2cccs2)CCN(C)CC1 (stereo not drawn) [Example 26, 4-(2-Thienyl)-α,1-dimethylpiperidinemethanol]	–	–	19	13	–
CC(O)C1(c2ccsc2)CCN(C)CC1 (stereo not drawn) [Example 27, 4-(3-Thienyl)-α,1-dimethylpiperidinemethanol]	–	–	16	13	–
CC(O)C1(c2csc3ccccc23)CCN(C)CC1 (centres unmarked) [Example 29]	–	–	47	6.8	–
CCCN1CCC(c2cccc(Cl)c2)(C(C)O)CC1 (centres unmarked) [Example 34]	–	–	> 81	38	–
CCC(O)C1(c2cccc(Cl)c2)CCN(C)CC1 (centres unmarked) [Example 35]	–	–	30	16	–
CCCC(O)C1(c2cccc(Cl)c2)CCN(C)CC1 (centres unmarked) [Example 36]	–	–	> 81	67	–

Structure (SMILES)	Mouse PQW ED50 (mg/kg) (p.o.)	Mouse PQW ED50 (mg/kg) (s.c.)	ED50 [1] [mg/kg]	ED50 [2] [mg/kg]	Mouse PQW remark
CCCCC(O)C1(c2cccc(Cl)c2)CCN(C)CC1 (centres unmarked) [Example 37]	–	–	> 81	48	–
CN1CCC(c2cccc(Br)c2)(C(C)(C)O)CC1 [Example 41, 4-(3'-Bromophenyl)-α,α,1-trimethyl-4-piperidinemethanol]	–	–	24	19	–
C=CCN1CCC(c2cccc(Cl)c2)(C(C)(C)O)CC1 [Example 42, 1-allyl,4-(3'-chlorophenyl)-α,α dimethyl-4-piperidinemethanol]	–	–	54	27	–
CN1CCC(c2cccs2)(C(C)(C)O)CC1 [Example 43]	–	–	36	13	–
CN1CCC(c2ccsc2)(C(C)(C)O)CC1 [Example 44]	–	–	24	6.5	–
CN1CCC(c2csc3ccccc23)(C(C)(C)O)CC1 [Example 45]	–	–	54	4.2	–
CN1CCC(c2ccccn2)(C(C)(C)O)CC1 [Example 46, reference compound]	–	–	> 81	> 81	Inactive
CN1CCC(c2cccc3ccccc23)(C(C)(C)O)CC1 [Example 50]	–	–	67	24	–
CC(=O)OC(C)C1(c2cccc(Cl)c2)CCN(C)CC1 (stereo not drawn) [Example 66, 4-(3'-Chlorophenyl)-α,1-dimethyl-4-piperidinemethanol-Acetate]	–	–	19	13	–
CC(=O)OC(C)(C)C1(c2cccc(Cl)c2)CCN(C)CC1 [Example 67, 4-(3'-Chlorophenyl)-α,α,1-trimethyl-4-piperidinemethanol Acetate]	–	–	5.2	1.8	–
COC(C)C1(c2cccc(Cl)c2)CCN(C)CC1 (centres unmarked) [Example 68]	–	–	19	6.5	–
CC(OCc1ccccc1)C1(c2cccc(Cl)c2)CCN(C)CC1 (centres unmarked) [Example 69]	–	–	> 81	62	–
CN1CCC(c2cccc(Cl)c2)(C(C)(C)O)C1 (stereo not drawn) [Example 70, 3-(3'Chlorophenyl)-α,α,1-trimethyl-3-pyrrolidinemethanol]	–	–	13	10	–
CC(O)C1(c2cccc(Cl)c2)CCCN(C)CC1 (stereo not drawn) [Example 71, 4-(3'-Chlorophenyl)-α,1-dimethyl-2,3,4,5,6,7-hexahydro-1H-azepine-4-methanol]	–	–	16	8.1	–
COc1cccc(C2(C3(O)CCCC3)CCN(C)CC2)c1 [FF]	47.0	16.0	–	–	–
COc1cccc(C2(C3(O)CCCCC3)CCN(C)CC2)c1 [GG]	<108.0	–	–	–	–
CCOc1cccc(C2(C(C)(C)O)CCN(C)CC2)c1 [HH]	32.0	9.0	–	–	–
CSc1ccc(C2(C(C)(C)O)CCN(C)CC2)cc1 [II]	59.0	–	–	–	–
CN1CCC(c2ccc3ccccc3c2)(C(C)(C)O)CC1 [KK]	47.0	27.0	–	–	–
Cc1ccc(C2(C(C)(C)O)CCN(C)CC2)s1 [LL]	36.0	9.0	–	–	–
Cc1cc(C)cc(C2(C(C)(C)O)CCN(C)CC2)c1 [U]	47.0	4.5	–	–	–
CCC(C)(O)C1(c2cccc(C(F)(F)F)c2)CCN(C)CC1 (centres unmarked) [V]	23.0	–	–	–	–
CN1CCC(c2cccc(C(F)(F)F)c2)(C2(O)CCCC2)CC1 [W]	12.0	16.0	–	–	–
CN1CCC(c2cccc(F)c2)(C(C)(C)O)CC1 [X]	>81.0	10.0	–	–	–
CC1CCC(O)(C2(c3cccc(C(F)(F)F)c3)CCN(C)CC2)C1 (centres unmarked) [Y]	25.0	–	–	–	–
